For 18 molecules, IC50, inhibition and Ki results are on record in patent US7045528B2, “Benzofused heterozryl amide derivatives of thienopyridines useful as therapeutic agents, pharmaceutical compositions including the same, and methods for their use” (Agouron Pharmaceuticals, Inc., priority 2002, dated 2006).

One may read the IC50 as the midpoint of a concentration-inhibition curve. One may read the Ki as a measure of affinity in units of concentration, obtained from inhibition or displacement. The low end stands for a stronger hold on the target, the high end for a looser hold on the target.

The test system of test [1] is human umbilical vein endothelial cells (HUVEC). Put plainly: HUVEC+VEGF proliferation assay. It is filed as cell-based. Conditions: Homo sapiens, HUVEC; VEGF 6 ng/mL, 72 h, MTT. The method in brief:
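Exponentially growing passage 3–4 HUVEC were starved 24 h in F12K + 1% FBS, given compound (0.1% final DMSO) 1 h before 6 ng/mL final VEGF, then cultured 72 h. Proliferation was read as MTT dye reduction (4 h exposure), absorbance at 595 nm.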

A further test concerns Huvec. Put plainly: bFGF Huvec proliferation. It is filed as cell-based, human. The settings on record: Homo sapiens, HUVEC.
The target of a further test is T1, PDGFRβ (Homo sapiens, UniProt P09619).
T1 construct: expressed in transfected cells; host or cells: porcine aorta endothelial (PAE)-PDGFRβ cells
Nature of the test: PAE-PDGFRβ phosphorylation in PAE-PDGFRB cells assay. The test is classed as cell-based. Conditions: PAE cells overexpressing human PDGFRβ, PDGF-BB stimulated; read-out: PAE PDGFR autophos IC50 (nM) AVG. In outline: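 Inhibition of PDGF-BB-induced (1 μg/mL, 8 min, with 2 mM vanadate) PDGFRβ autophosphorylation in porcine aortic endothelial cells expressing the human receptor. Cells were starved 16 h and pretreated with compound 1 h at 37 °C. Lysates were captured with anti-PDGFRβ and probed with HRP-PY20 at 450 nm; four-parameter IC50.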

Test [2] deals with T2, unphosphorylated VEGF-R2Δ50 (FLVK) (Homo sapiens, UniProt P35968, DEL940-989/E990V).
T2 construct: VEGF-R2Δ50 contains residues 806–939 and 990–1171; made in house; host or cells: baculovirus/insect cell system
Put plainly: VEGF-R2 coupled spectrophotometric assay, unphosphorylated VEGF-R2Δ50 (FLVK). The test is classed as biochemical. Conditions: unphosphorylated VEGF-R2Δ50; for inhibition at 0.05 µM: 50 nM compound, read-out: FLVK (% inh @ 50 nM). In outline:
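Ki obtained by Morrison-equation fitting of activity at varied compound levels; reaction started with 5–40 nM enzyme. Non-autophosphorylated kinase construct (insect cell-expressed) with 3 mM ATP, 20 mM poly(E4Y1), 60 mM MgCl2 plus 2 mM MnCl2, pH 7.5 HEPES; NADH loss at 340 nm via PK/LDH coupling.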

T1 sequence (P09619 33-1106): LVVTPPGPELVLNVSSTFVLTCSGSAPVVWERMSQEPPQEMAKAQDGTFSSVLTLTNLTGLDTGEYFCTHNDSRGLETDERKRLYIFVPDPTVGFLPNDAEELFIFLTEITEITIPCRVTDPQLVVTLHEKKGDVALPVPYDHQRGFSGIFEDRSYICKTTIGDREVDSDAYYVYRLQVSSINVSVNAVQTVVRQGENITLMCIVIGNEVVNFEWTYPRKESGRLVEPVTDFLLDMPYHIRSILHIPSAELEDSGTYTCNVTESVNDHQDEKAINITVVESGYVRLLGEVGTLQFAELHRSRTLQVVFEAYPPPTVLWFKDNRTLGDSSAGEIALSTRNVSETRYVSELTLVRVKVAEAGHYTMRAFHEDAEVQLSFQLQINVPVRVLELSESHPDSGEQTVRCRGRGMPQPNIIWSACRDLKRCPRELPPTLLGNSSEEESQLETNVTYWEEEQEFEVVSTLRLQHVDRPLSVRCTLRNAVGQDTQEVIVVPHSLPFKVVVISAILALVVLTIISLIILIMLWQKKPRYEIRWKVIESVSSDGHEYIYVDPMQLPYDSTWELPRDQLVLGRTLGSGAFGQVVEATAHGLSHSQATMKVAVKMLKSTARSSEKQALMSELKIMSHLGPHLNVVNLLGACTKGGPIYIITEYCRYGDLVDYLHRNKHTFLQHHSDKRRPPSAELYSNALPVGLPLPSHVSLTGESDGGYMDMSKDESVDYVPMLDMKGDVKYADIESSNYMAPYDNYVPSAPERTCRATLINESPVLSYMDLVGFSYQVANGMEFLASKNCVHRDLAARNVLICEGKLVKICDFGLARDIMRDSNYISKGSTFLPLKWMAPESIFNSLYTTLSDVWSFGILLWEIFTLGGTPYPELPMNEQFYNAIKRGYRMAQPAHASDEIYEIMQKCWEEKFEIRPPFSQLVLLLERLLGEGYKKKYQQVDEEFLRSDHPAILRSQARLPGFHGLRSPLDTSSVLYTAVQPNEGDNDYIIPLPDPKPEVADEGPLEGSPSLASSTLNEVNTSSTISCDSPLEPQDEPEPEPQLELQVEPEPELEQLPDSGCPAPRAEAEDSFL
T2 sequence (P35968 with tags, fused parts or gaps DEL940-989/E990V limits assumed): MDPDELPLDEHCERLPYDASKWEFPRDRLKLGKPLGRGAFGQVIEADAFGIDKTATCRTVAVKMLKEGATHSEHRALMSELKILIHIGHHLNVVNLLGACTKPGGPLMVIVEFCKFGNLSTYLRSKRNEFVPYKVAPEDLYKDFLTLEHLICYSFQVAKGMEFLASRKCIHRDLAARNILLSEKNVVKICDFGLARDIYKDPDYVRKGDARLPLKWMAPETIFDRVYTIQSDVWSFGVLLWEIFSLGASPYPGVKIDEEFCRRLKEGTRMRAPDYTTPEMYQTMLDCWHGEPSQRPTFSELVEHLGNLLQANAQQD

For the molecule `CNC(=O)c1c(Cl)n(C)c2cc(Oc3ccnc4cc(-c5nc(C(C)(C)O)cs5)sc34)ccc12` [Example 75, 2-Chloro-6-{2-[4-(1-hydroxy-1-methyl-ethyl)thiazol-2-yl]-thieno[3,2-b]pyridin-7-yloxy}-1-methyl-1H-indole-3-carboxyllc acid methylamide], the results for the IC50 (in test [1]; in the test with Huvec; at PDGFRβ) were 1.4 nM, 10000 nM and 16.6 nM, respectively. The inhibition at 0.05 µM in test [2] was 84%. Besides, the Ki in test [2] came out at 2.62 nM.

Regarding `CNC(=O)c1c(C)oc2cc(Oc3ccnc4cc(C(=O)N5CCC5)sc34)ccc12` [Example 77, 6[2-(Azetidine-1-carbonyl)-thieno[3,2-b]pyridin-7-yloxy]-2-methyl-benzofuran-3-carboxylic acid methylamide], the IC50 in test [1] is 0.2 nM; in the test on Huvec it was 8 nM; at PDGFRβ, 7.4 nM. Moreover, the inhibition at 0.05 µM in test [2] worked out at 99%. Further, the affinity in test [2], expressed as Ki, was 0.2 nM.

Turning to `CNC(=O)c1c(C)oc2cc(Oc3ccnc4cc(C(=O)N5CCC[C@H]5COC)sc34)ccc12` [Example 79, 6-(2-[(S)-2-(methoxymethyl)pyrrolidine-1-carbonyl]thieno[3,2-b]pyridin-7-yloxy)-2-methyl-benzofuran-3-carboxylic acid methyl amide], the IC50 in test [1] is 0.223 nM; in the test on Huvec, 130 nM; at PDGFRβ, 15.5 nM. Moreover, the inhibition at 0.05 µM in test [2] came out at 90%. In test [2], this molecule displayed a Ki of 0.276 nM.

In the case of `CNC(=O)c1c(C)oc2cc(Oc3ccnc4cc(C(=O)N5CCC[C@H]5CO)sc34)ccc12` [Example 80, 6-(2-[(S)-2-(hydroxymethyl)pyrrolidine-1-carbonyl]thieno[3,2-b]pyridin-7-yloxy)-2-methyl-benzofuran-3-carboxylic acid methylamide], the IC50 in test [1] worked out at 0.239 nM; in the test on Huvec, 60 nM; on PDGFRβ, 31 nM. Besides, in test [2], the inhibition at 0.05 µM was found to be 95%. Moreover, in test [2], affinity was put at a Ki of 0.438 nM.

Turning to `CNC(=O)c1c(C)oc2cc(Oc3ccnc4cc(-c5nc(CO)cs5)sc34)ccc12` [Example 81, 6-[2-(4-Hydroxymethyl-thiazol-2-yl)-thieno[3,2-b]pyridin-7-yloxy]-2-methyl-benzofuran-3-carboxylic acid methylamide], the IC50 in test [1] worked out at 0.09 nM; in the test with Huvec it was 26 nM; on PDGFRβ, 7 nM. Moreover, in test [2], the inhibition at 0.05 µM was found to be 100%. The molecule also registered a Ki in test [2] of 0.2 nM.

As for `COC[C@@H]1CCCN1C(=O)c1cc2nccc(Oc3ccc4c(C(=O)NC(C)C)c(C)oc4c3)c2s1` [Example 82, 6-(2-[(S)-2-(methoxymethyl)pyrrolidine-1-carbonyl]thieno[3,2-b]pyridin-7-yloxy)-2-methyl-benzofuran-3-carboxylic acid isopropylamide], the values for the IC50 (in test [1]; with Huvec; on PDGFRβ) were 2.28 nM, 2060 nM and 53.1 nM, respectively. Besides, in test [2], the inhibition at 0.05 µM worked out at 89%. Also, the Ki in test [2] amounted to 0.884 nM.

Regarding `Cc1oc2cc(Oc3ccnc4cc(-c5nccn5C)sc34)ccc2c1C(=O)NC(C)C` [Example 83, 2-Methyl-6-[2-(1-methyl-1H-imidazol-2-yl)-thieno[3,2-b]pyridin-7-yloxy]-benzofuran-3-carboxylic acid isopropyl amide], the IC50 came to 0.77 nM in test [1], 142 nM in the test on Huvec and 28.8 nM on PDGFRβ. Moreover, the inhibition at 0.05 µM in test [2] was 98%. This molecule displayed a Ki in test [2] of 0.2 nM.

As for `Cc1oc2cc(Oc3ccnc4cc(-c5nccn5C)sc34)ccc2c1C(=O)NCC(C)C` [Example 84, 2-Methyl-6-[2-(1-methyl-1H-imidazol-2-yl)-thieno[3,2-b]pyridin-7-yloxy]-benzofuran-3-carboxylic acid isobutyl amide], the IC50 in test [1] came to 0.322 nM; in the test with Huvec it was 429 nM; at PDGFRβ it was 12.4 nM. Also, the inhibition at 0.05 µM in test [2] stood at 94%. In test [2], this molecule yielded an inhibition constant (Ki) of 0.58 nM.

As for `CO[C@@H]1CCN(C(=O)c2cc3nccc(Oc4ccc5c(C(=O)NCC(C)C)c(C)oc5c4)c3s2)C1` [Example 87, 6-[2-(3-Methoxy-pyrrolidine-1-carbonyl)-thieno[3,2-b]pyridin-7-yloxy]-2-methyl-benzofuran-3-carboxylic acid isobutyl amide], the concentration for half-maximal inhibition (IC50) is 1.25 nM in test [1], 6040 nM in the test with Huvec and 17.8 nM on PDGFRβ. Also, in test [2], the inhibition at 0.05 µM stood at 96%. In addition, the Ki in test [2] came out at 0.615 nM.

As to `Cc1oc2cc(Oc3ccnc4cc(C(=O)N5CC[C@@H](O)C5)sc34)ccc2c1C(=O)NCC(C)C` [Example 88, 2-Methyl-6[2-(3-hydroxy-pyrrolidine-1-carbonyl)-thieno[3,2-b]pyridin-7-yloxy]-benzofuran-3-carboxylic acid isobutyl amide], the IC50 in test [1] is 0.46 nM; with Huvec, 363 nM; at PDGFRβ, 15.1 nM. Further, the inhibition at 0.05 µM in test [2] amounted to 94%. For the same molecule, the Ki in test [2] was 0.574 nM.

Regarding `CO[C@@H]1CCN(C(=O)c2cc3nccc(Oc4ccc5c(C(=O)NCCN6CCOCC6)c(C)oc5c4)c3s2)C1` [Example 90, 6-[2-(3-Methoxy-pyrrolidine-1-carbonyl)-thieno[3,2-b]pyridin-7-yloxy]-2-methyl-benzofuran-3-carboxylic acid (2-morpholin-4-yl-ethyl)-amide], the IC50 in test [1] was 2.14 nM; in the test with Huvec it was 745 nM; on PDGFRβ, 33 nM. Further, the inhibition at 0.05 µM in test [2] was determined as 93%. Also, the Ki in test [2] turned out to be 0.739 nM.

For `CO[C@@H]1CCN(C(=O)c2cc3nccc(Oc4ccc5c(C(=O)NCC6CC6)c(C)oc5c4)c3s2)C1` [Example 91, 6-[2-(q-Methoxy-pyrrolidine-1-carbonyl)-thieno[3,2-b]pyridin-7-yloxy]-2-methyl-benzofuran-3-carboxylic acid cyclopropylmethyl-amide], the IC50 in test [1] is 0.168 nM; with Huvec it was 250 nM; at PDGFRβ, 16.5 nM. The inhibition at 0.05 µM in test [2] was determined as 94%. In test [2], this molecule displayed an inhibition constant Ki of 0.356 nM.

Turning to `CCCNC(=O)c1c(C)oc2cc(Oc3ccnc4cc(C(=O)N5CC[C@@H](OC)C5)sc34)ccc12` [Example 92, 6-[2-(3-Methoxy-pyrrolidine-1-carbonyl)-thieno[3,2-b]pyridin-7-yloxy]-2-methyl-benzofuran-3-carboxylic acid propyl amide], the IC50 in test [1] is 0.18 nM; with Huvec, 13 nM; at PDGFRβ, 4.4 nM. The inhibition at 0.05 µM in test [2] stood at 100%. In test [2], this molecule registered a Ki of 0.2 nM.

For the molecule `CCc1oc2cc(Oc3ccnc4cc(-c5nccn5C)sc34)ccc2c1C(=O)NC` [Example 94, 2-Ethyl-6[2-(1-methyl-1H-imidazol-2-yl)-thieno[3,2-b]pyridin-7-yloxy]-benzofuran-3-carboxylic acid methylamide], the figures for the IC50 (in test [1]; with Huvec; at PDGFRβ) were 0.7 nM, 251 nM and 112 nM, respectively. Also, in test [2], the inhibition at 0.05 µM turned out to be 81%. The Ki in test [2] was 1.45 nM.

As for `CCc1oc2cc(Oc3ccnc4cc(C(=O)N5CC[C@@H](O)C5)sc34)ccc2c1C(=O)NC` [Example 95, 2-Ethyl-6-[2-(3-hydroxy-pyrrolidine-1-carbonyl)-thieno[3,2-b]pyridin-7-yloxy]-benzofuran-3-carboxylic acid methylamide], the IC50 came out at 10 nM in test [1], 96 nM in the test on Huvec and 235 nM at PDGFRβ. Moreover, the inhibition at 0.05 µM in test [2] was 89%. Moreover, in test [2], affinity was put at a Ki of 0.848 nM.

Consider `CCc1oc2cc(Oc3ccnc4cc(C(=O)N5CCC[C@H]5CO)sc34)ccc2c1C(=O)NC` [Example 97, 2-ethyl-6(2-[(S)-2-(hydroxymethyl)pyrrolidine-1-carbonyl]thieno[3,2-b]pyridin-7-yloxy)-benzofuran-3-carboxylic acid methylamide], for which the IC50 in test [1] amounted to 10 nM; with Huvec, 223 nM; at PDGFRβ, 293 nM. In test [2], the inhibition at 0.05 µM was 70%. The same molecule came in with a Ki in test [2] of 4.84 nM.

Take `Cc1oc2cc(Oc3ccnc4ccsc34)ccc2c1C(=O)Nc1ccc(N2CCOCC2)nc1` [Example 102, 2-Methyl-6-(thieno[3,2-b]pyridin-7-yloxy)benzofuran-3-carboxylic acid (6-morpholin-4-yl-pyridin-3-yl)amide]: the IC50 in test [1] was 0.186 nM; in the test with Huvec, 1720 nM; on PDGFRβ, 49 nM. For the same molecule, the inhibition at 0.05 µM in test [2] was found to be 96%. This molecule displayed a Ki in test [2] of 0.91 nM.

Take `Cc1oc2cc(Oc3ccnc4ccsc34)ccc2c1C(=O)NCCc1c[nH]c2cc(F)ccc12` [Example 104, 2-Methyl-6-(thieno[3,2-b]pyridin-7-yloxy)-benzofuran-3-carboxylic acid [2-(6-fluoro-1H-indol-3-yl)ethyl]-amide]: the IC50 in test [1] was 8.4 nM; in the test on Huvec it was 227 nM; on PDGFRβ it was 164 nM. The inhibition at 0.05 µM in test [2] came out at 100%.
